Assay results taken from patent US4767778A (Institut National de la Sante et de la Recherche Medicale …, priority 1985, dated 1988).
Like-named read-outs stand apart in the source and are kept apart here.

Assays:
[1] = test system: H3 receptors; assay: Inhibition of the synthesis of (3H) histamine in rats in vivo; design: species or system rat; details: for (3) histamine (% of the total radioactivity × 10^-3), Treated: 10 minutes
[2] = test system: H1 /H2 receptors; details: histamine = 100%; cited from earlier work
[3] = biological target: T1, H3 autoreceptors (Rattus norvegicus, UniProt Q9QYN8)
T1 sequence (Q9QYN8 whole entry): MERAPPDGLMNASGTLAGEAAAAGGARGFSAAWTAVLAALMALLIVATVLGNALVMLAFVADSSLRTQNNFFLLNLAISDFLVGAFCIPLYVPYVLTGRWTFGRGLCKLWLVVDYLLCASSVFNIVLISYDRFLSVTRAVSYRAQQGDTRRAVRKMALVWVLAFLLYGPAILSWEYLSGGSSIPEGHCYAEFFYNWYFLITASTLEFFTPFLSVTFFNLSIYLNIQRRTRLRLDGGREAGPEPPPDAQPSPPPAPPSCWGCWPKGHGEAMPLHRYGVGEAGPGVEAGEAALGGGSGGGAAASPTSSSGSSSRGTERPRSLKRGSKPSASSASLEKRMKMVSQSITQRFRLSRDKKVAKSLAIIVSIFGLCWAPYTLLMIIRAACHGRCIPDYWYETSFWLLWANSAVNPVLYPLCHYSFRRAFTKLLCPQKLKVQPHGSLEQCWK

[4] = biological target: T1, H3 autoreceptors; details: slices of rat brain
[5] = test system: H3 receptors; assay: Inhibition of synthesis of histamine in slices of human cerebral cortex and posterior hypothalamus; assay type: cell-based; details: slices of human cerebral cortex and posterior hypothalamus (mamillary)

| SMILES | Activity relative to histamine (%) H1 /H2 receptors [2] | EC50 [3] [µM] | Activity relative to histamine (%) H3 receptors ([3]; histamine = 100% (EC50 […] nM)) [%] | other results |
| --- | --- | --- | --- | --- |
| C[C@@H](N)Cc1c[nH]cn1 [1 (R), 4-(2-aminopropyl)-imidazole] |  |  |  | effect on the synthesis of (3H) histamine in the brain and peripheral tissues ([1]; 10 mg/kg, simultaneous with (3H)-L-histidine, completely reversed by an H3 antagonist): significantly reduces; (3) histamine (% of the total radioactivity × 10^-3), Treated ([1]; Cerebral cortex, 10 mg/kg i.v. with (3H)-L-histidine, controls 95 ± 6): 53 ± 6 % of the total radioactivity ×; Variation (%) ([1]; Cerebral cortex, 10 mg/kg i.v., p < 0.01): -45%; (3) histamine (% of the total radioactivity × 10^-3), Treated ([1]; Hypothalmus, 10 mg/kg i.v., controls 272 ± 11): 185 ± 32 % of the total radioactivity ×; Variation (%) ([1]; Hypothalmus, 10 mg/kg i.v., p < 0.01): -32%; Variation (%) ([1]; Kidneys, 10 mg/kg i.v., p < 0.05): -30%; (3) histamine (% of the total radioactivity × 10^-3), Treated ([1]; Lungs, 10 mg/kg i.v., controls 138 ± 10): 94 ± 10 % of the total radioactivity ×; Variation (%) ([1]; Lungs, 10 mg/kg i.v., p < 0.05): -32%; (3) histamine (% of the total radioactivity × 10^-3), Treated ([1]; Spleen, 10 mg/kg i.v., controls 60 ± 8): 42 ± 5 % of the total radioactivity ×; Variation (%) ([1]; Spleen, 10 mg/kg i.v., p < 0.05): -30% |
| CC(CN)c1c[nH]cn1 (racemic) [3 (R, S), 4-(1-methyl 2-aminoethyl)-imidazole] | 2-2% | 0.02 ± 0.005 | 120 |  |
| C[C@](N)(Cc1c[nH]cn1)C(=O)O (racemic) [6 (R, S), α-methylhistidine] | inactive | 1 ± 0.5 | 6 |  |
| NCCc1c[nH]cn1 [histamine, reference compound] |  |  |  | maximal inhibition of the stimulation by potassium of the synthesis of (3H) histamine [4]: approximately 70%; maximal inhibition of release of (3H) histamine ([3]; slices of rat brain): approximately 60% |
| CC(C)(CN)c1c[nH]cn1 [compound 4, 4-(1,1-dimethyl 2-aminoethyl)-imidazole] | < 0.1% | 0.05 ± 0.02 | 120 |  |
| CC(C)(N)Cc1c[nH]cn1 [compound 2, 4-(2-methyl 2-aninopropyl)-imidazole] | < 1% | 0.02 ± 0.01 |  | Activity relative to histamine (%) H3 receptors [3]: 300% |
| CC(N)Cc1c[nH]cn1 (racemic) [compound 1, 4-(2-aminopropyl)-imidazole] |  |  |  | effect on synthesis of histamine [5]: inhibits |
| NC1CC1c1c[nH]cn1 (stereo not shown) [compound 5, 2-(4-imidazolyl)-cyclopropylamine] | < 1% | < 0.1 | > 60 |  |
